# From ChEMBL document CHEMBL4346757, “Synthesis and biological evaluation of 7-methoxy-1-(3,4,5-trimethoxyphenyl)-4,5-dihydro-2H-benzo[e]indazoles as new colchicine site inhibitors” (Bioorg Med Chem Lett, 2019)
# Experiments:
# Assay type in all cases: functional
# T47D = assay: Cytotoxicity against human T47D cells assessed as growth inhibition after 48 hrs by SRB assay
# RPMI-8226 = assay: Growth inhibition of human RPMI8226 cells assessed as cell growth at 0.01 uM after 48 hrs by SRB assay relative to control; conditions: RPMI-8226, 48 h, read-out: Activity
# RXF 393 [1] = assay: Growth inhibition of human RXF393 cells assessed as cell growth at 1 uM after 48 hrs by SRB assay relative to control; conditions: RXF 393, 48 h, read-out: Activity
# OVCAR-4 = assay: Growth inhibition of human OVCAR4 cells assessed as cell growth at 100 uM after 48 hrs by SRB assay relative to control; conditions: OVCAR-4, 48 h, read-out: Activity
# MDA-MB-231 [2] = assay: Growth inhibition of human MDA-MB-231/ATCC cells assessed as cell growth at 0.1 uM after 48 hrs by SRB assay relative to control; conditions: MDA-MB-231, 48 h, read-out: Activity
# IGROV-1 = assay: Growth inhibition of human IGROV1 cells assessed as cell growth at 10 uM after 48 hrs by SRB assay relative to control; conditions: IGROV-1, 48 h, read-out: Activity
# HT-29 = assay: Cytotoxicity against human HT-29 cells assessed as growth inhibition after 48 hrs by SRB assay; conditions: HT-29, 48 h
# BT-549 = assay: Cytotoxicity against human BT549 cells assessed as growth inhibition after 48 hrs by SRB assay; conditions: BT-549, 48 h
# SNB-75 = assay: Cytotoxicity against human SNB75 cells assessed as growth inhibition after 48 hrs by SRB assay; conditions: SNB-75, 48 h
# 786-0 [3] = assay: Growth inhibition of human 786-0 cells assessed as cell growth at 10 uM after 48 hrs by SRB assay relative to control; conditions: 786-0, 48 h, read-out: Activity
# MOLT-4 = assay: Growth inhibition of human MOLT4 cells assessed as cell growth at 1 uM after 48 hrs by SRB assay relative to control; conditions: MOLT-4, 48 h, read-out: Activity
# ACHN = assay: Growth inhibition of human ACHN cells assessed as cell growth at 0.1 uM after 48 hrs by SRB assay relative to control; conditions: read-out: Activity
# HCT-116 = assay: Growth inhibition of human HCT116 cells assessed as cell growth at 100 uM after 48 hrs by SRB assay relative to control; conditions: HCT-116, 48 h, read-out: Activity
# K562 [4] = assay: Growth inhibition of human K562 cells assessed as cell growth at 0.1 uM after 48 hrs by SRB assay relative to control; conditions: K562, 48 h, read-out: Activity
# NCI/ADR-RES = assay: Growth inhibition of human NCI-ADR-RES cells assessed as cell growth at 100 uM after 48 hrs by SRB assay relative to control; conditions: read-out: Activity
# U-251 [5] = assay: Growth inhibition of human U251 cells assessed as cell growth at 0.1 uM after 48 hrs by SRB assay relative to control; conditions: U-251, 48 h, read-out: Activity
# UACC-257 = assay: Growth inhibition of human UACC257 cells assessed as cell growth at 100 uM after 48 hrs by SRB assay relative to control; conditions: UACC-257, 48 h, read-out: Activity
# EKVX = assay: Growth inhibition of human EKVX cells assessed as cell growth at 1 uM after 48 hrs by SRB assay relative to control; conditions: read-out: Activity
# 786-0 [6] = assay: Growth inhibition of human 786-0 cells assessed as cell growth at 0.1 uM after 48 hrs by SRB assay relative to control; conditions: 786-0, 48 h, read-out: Activity
# A498 = assay: Growth inhibition of human A498 cells assessed as cell growth at 100 uM after 48 hrs by SRB assay relative to control; conditions: A498, 48 h, read-out: Activity
# K562 [7] = assay: Growth inhibition of human K562 cells assessed as cell growth at 0.01 uM after 48 hrs by SRB assay relative to control; conditions: K562, 48 h, read-out: Activity
# RXF 393 [8] = assay: Cytotoxicity against human RXF393 cells assessed as growth inhibition after 48 hrs by SRB assay; conditions: RXF 393, 48 h
# U-251 [9] = assay: Growth inhibition of human U251 cells assessed as cell growth at 10 uM after 48 hrs by SRB assay relative to control; conditions: U-251, 48 h, read-out: Activity
# Malme-3M = assay: Growth inhibition of human MALME-3M cells assessed as cell growth at 0.01 uM after 48 hrs by SRB assay relative to control; conditions: read-out: Activity
# HCC 2998 = assay: Growth inhibition of human HCC2998 cells assessed as cell growth at 100 uM after 48 hrs by SRB assay relative to control; conditions: HCC 2998, 48 h, read-out: Activity
# MDA-MB-231 [10] = assay: Cytotoxicity against human MDA-MB-231/ATCC cells assessed as growth inhibition after 48 hrs by SRB assay; conditions: MDA-MB-231, 48 h
# HCT-15 [11] = assay: Growth inhibition of human HCT15 cells assessed as cell growth at 10 uM after 48 hrs by SRB assay relative to control; conditions: HCT-15, 48 h, read-out: Activity
# SF-268 = assay: Growth inhibition of human SF268 cells assessed as cell growth at 10 uM after 48 hrs by SRB assay relative to control; conditions: SF-268, 48 h, read-out: Activity
# HCT-15 [12] = assay: Growth inhibition of human HCT15 cells assessed as cell growth at 0.01 uM after 48 hrs by SRB assay relative to control; conditions: HCT-15, 48 h, read-out: Activity
# Hs-578T = assay: Growth inhibition of human Hs 578T cells assessed as cell growth at 100 uM after 48 hrs by SRB assay relative to control; conditions: read-out: Activity
# NCI-H322M = assay: Growth inhibition of human NCI-H322M cells assessed as cell growth at 1 uM after 48 hrs by SRB assay relative to control; conditions: read-out: Activity
# [13] = read-out: LC50 (the source's name)
# [14] = read-out: pLC50 (the source's name) (converted)
structure (smiles),measurement,setting,value
COc1ccc2c(c1)CCc1n[nH]c(-c3cc(OC)c(OC)c(OC)c3)c1-2,GI50,T47D; read-out: GI50,3.59 µM
same,LC50,T47D; read-out: LC50,62.5 µM
same,TGI,T47D; read-out: TGI,21.3 µM
same,GI50,T47D; read-out: pGI50 (converted),3.63 µM
same,LC50,T47D; read-out: pLC50 (converted),63.1 µM
same,TGI,T47D; read-out: pTGI (converted),21.4 µM
same,growth at 0.01 µM,RPMI-8226,45%
same,growth at 1 µM,RXF 393 [1],6%
same,growth at 100 µM,OVCAR-4,-12%
same,growth at 0.1 µM,MDA-MB-231 [2],29%
same,growth at 10 µM,IGROV-1,20%
same,GI50,HT-29; read-out: GI50,< 0.01 µM
same,CC50,HT-29; [13],49.9 µM
same,TGI,HT-29; read-out: TGI,10.1 µM
same,GI50,HT-29; read-out: pGI50 (converted),< 0.01 µM
same,CC50,HT-29; [14],50.1 µM
same,TGI,HT-29; read-out: pTGI (converted),10 µM
same,GI50,BT-549; read-out: GI50,< 0.01 µM
same,LC50 (50% lethal concentration),BT-549; read-out: LC50,> 100 µM
same,TGI,BT-549; read-out: TGI,10.6 µM
same,GI50,BT-549; read-out: pGI50 (converted),< 0.01 µM
same,LC50 (50% lethal concentration),BT-549; read-out: pLC50 (converted),> 100 µM
same,TGI,BT-549; read-out: pTGI (converted),10.7 µM
same,GI50,SNB-75; read-out: GI50,< 0.01 µM
same,CC50,SNB-75; [13],> 100 µM
same,TGI,SNB-75; read-out: TGI,26.1 µM
same,GI50,SNB-75; read-out: pGI50 (converted),< 0.01 µM
same,CC50,SNB-75; [14],> 100 µM
same,TGI,SNB-75; read-out: pTGI (converted),26.3 µM
same,growth at 10 µM,786-0 [3],3%
same,growth at 1 µM,MOLT-4,36%
same,growth at 0.1 µM,ACHN,27%
same,growth at 100 µM,HCT-116,-66%
same,growth at 0.1 µM,K562 [4],19%
same,growth at 100 µM,NCI/ADR-RES,-31%
same,growth at 0.1 µM,U-251 [5],10%
same,growth at 100 µM,UACC-257,-49%
same,growth at 1 µM,EKVX,52%
same,growth at 0.1 µM,786-0 [6],17%
same,growth at 100 µM,A498,-61%
same,growth at 0.01 µM,K562 [7],19%
same,GI50,RXF 393 [8]; read-out: GI50,< 0.01 µM
same,CC50,RXF 393 [8]; [13],51.3 µM
same,GI50,RXF 393 [8]; read-out: pGI50 (converted),< 0.01 µM
same,CC50,RXF 393 [8]; [14],51.3 µM
same,growth at 10 µM,U-251 [9],5%
same,growth at 0.01 µM,Malme-3M,46%
same,growth at 100 µM,HCC 2998,-80%
same,GI50,MDA-MB-231 [10]; read-out: GI50,< 0.01 µM
same,LC50 (concentration killing 50% of cells),MDA-MB-231 [10]; read-out: LC50,> 100 µM
same,TGI,MDA-MB-231 [10]; read-out: TGI,44.8 µM
same,GI50,MDA-MB-231 [10]; read-out: pGI50 (converted),< 0.01 µM
same,LC50 (concentration killing 50% of cells),MDA-MB-231 [10]; read-out: pLC50 (converted),> 100 µM
same,TGI,MDA-MB-231 [10]; read-out: pTGI (converted),44.7 µM
same,growth at 10 µM,HCT-15 [11],3%
same,growth at 10 µM,SF-268,18%
same,growth at 0.01 µM,HCT-15 [12],6%
same,growth at 100 µM,Hs-578T,-18%
same,growth at 1 µM,NCI-H322M,42%
